Measured values published in patent publication US20050222402A1, “Dna encoding rat bombesin receptor subtype-3 (brs-3) and uses thereof” (priority 2001, published 2005).
Numbering of substitutions follows the chain as printed. Non-standard residues stand in square brackets, D forms with d. Residues, ends and D or L forms follow the SMILES beside them. Nle = CCCC[C@H](N)C(=O)O; βAla = NCCC(=O)O

Tests used:
rat BRS-3 = biological target: T1, rat BRS-3 (Rattus norvegicus, UniProt Q8K418); assay: Phosphatidylinositol hydrolysis functional assay; assay type: cell-based
T1 construct: utilized to PCR amplify full-length rat BRS-3 cDNA; expressed in transfected cells; host or cells: 293EBNA cells, pE3 expression vector
T1 sequence (Q8K418 1-399): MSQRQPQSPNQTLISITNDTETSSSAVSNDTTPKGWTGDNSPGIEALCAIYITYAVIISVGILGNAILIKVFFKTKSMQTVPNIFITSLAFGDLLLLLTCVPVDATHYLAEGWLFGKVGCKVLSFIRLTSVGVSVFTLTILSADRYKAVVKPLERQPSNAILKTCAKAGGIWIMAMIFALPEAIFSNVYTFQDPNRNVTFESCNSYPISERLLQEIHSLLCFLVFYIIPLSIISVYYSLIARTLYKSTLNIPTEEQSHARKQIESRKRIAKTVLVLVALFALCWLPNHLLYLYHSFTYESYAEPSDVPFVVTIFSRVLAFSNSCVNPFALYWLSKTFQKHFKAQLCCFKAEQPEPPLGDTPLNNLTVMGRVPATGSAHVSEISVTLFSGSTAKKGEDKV
Experimental: Wild type and mutant BRS-3 constructs were transfected by using lipofectamine reagents (Life Technologies, Rockville, Md.) into 293EBNA cells (Invitrogen, Carlsbad, Calif.) which support episomal replication of plasmid containing Epstein Bar virus OriP segment. Stable cell lines were obtained by selection with 250 ug/ml hygromycin. The cells were maintained as monolayers in Dulbecco's modified Eagle's medium (Life Technologies, Rockville, Md.) supplemented with 10% fetal bovine serum and incubated at 37° C. in a humidified 5% CO2 incubator.
The functional properties of rat BRS-3 were characterized in transfected 293EBNA cells. The transfected 293EBNA cells were plated onto poly-D-lysine coated 12-well plates and incubated in the medium containing 2 uCi/ml [^3H]myo-inositol. The cells were labeled for 48 hrs, and subsequently incubated for 30 minutes in Hank's balanced salt solution containing 10 mM HEPES, 0.1% BSA and 10 mM LiCl.
Since a natural agonist of BRS-3 has not been found, members of the bombesin-like peptide family, including GRP, NMB, bombesin and dYB, were used to stimulate the transfected cells described above, in the same buffer, for 1 hr at 37° C. The reaction was stopped by removal of medium and addition of 10 mM formic acid. The inositol monophosphate fraction was then isolated by anion chromatography as described (Berridge et al. Biochem. J. 212: 473-482 (1983), which is hereby incorporated by reference).

Rat BRS-3/IF (RB3-IF) = biological target: T2, Rat BRS-3/IF (RB3-IF) (Rattus norvegicus, UniProt Q8K418, V310I/V311F); assay: Calcium mobilization assay (FLIPR), substitution mutant; assay type: cell-based
T2 construct: expressed in transfected cells; host or cells: 293EBNA cells, pE3 expression vector
T2 sequence (Q8K418 1-399 V310I/V311F): T1 sequence (Q8K418 1-399) with V310I, V311F
Description: (§1) Chimeric rat/human BRS-3 genes and substitution mutant rat BRS-3 genes were constructed by using PCR mutagenesis techniques (Fong, T. in Structure-function analysis of G protein coupled receptors, J, Wess, ed, Wiley-Liss, pp. 1-20, (1999)). All the mutant and wild type BRS-3 genes were cloned into pE3 expression vector which contains CMV early promoter, hygromycin-resistance gene and OriP segment from Epstein-Bar virus.
(§2) The functional activity of rat BRS-3 was also studied by measuring the agonist-induced calcium mobilization response using a Fluorescence Imaging Plate Reader (Molecular Devices, Sunnyvale, Calif.). Transfected 293EBNA cells were plated onto poly-D-lysine coated 96-well plates with black wall and clear bottom (Becton Dickinson, Franklin Lakes, N.J.). After 16-48 hr culture, the cells were loaded with 4 uM Fluo-3-AM fluorescent calcium-indicator dye (Molecular Probes, Eugene, OR) in assay buffer (Hank's balanced salts solution, 10 mM HEPES, pH7.4, 0.1% bovine serum albumin, 2.5 mM probenecid).
The changes in intracellular calcium concentration, as indicated by Fluo-3 fluorescence, were immediately measured by FLIPR. Maximal changes in fluorescence over base line were used to determine agonist response.
(§3) The EC50 values were mean±S.E. calculated from dose-response curves of 3-5 repeated experiments using FLIPR assays.
To determine which amino acids in the E3 loop of human BRS-3 conferred dYB activity upon rat BRS-3, several substitution BRS-3 mutants were made in which the amino acids in the E3 loop of rat BRS-3 were substituted with residues that match human BRS-3.

[1] = test system: human bombesin receptor subtypes, including human BRS-3; conditions: Pradhan et al. 1998; Ryan et al. 1998; cited from earlier work
Rat BRS-3/E3 (RB3-E3) = biological target: T3, Rat BRS-3/E3 (RB3-E3) (Rattus norvegicus, UniProt Q8K418, A302V/D306A/E299Q/E303D/P308H/S300T/V307M/V310I/V311F/Y298S); assay: Calcium mobilization assay (FLIPR), chimeric receptor; assay type: cell-based, rat/human
T3 construct: expressed in transfected cells; host or cells: 293EBNA cells, pE3 expression vector
T3 sequence (Q8K418 1-399 Y298S/E299Q/S300T/A302V/E303D/D306A/V307M/P308H/V310I/V311F): T1 sequence (Q8K418 1-399) with Y298S, E299Q, S300T, A302V, E303D, D306A, V307M, P308H, V310I, V311F
Description: as §1, §2
The changes in intracellular calcium concentration, as indicated by Fluo-3 fluorescence, were immediately measured by FLIPR. Maximal changes in fluorescence over base line were used to determine agonist response. […]
as §3

## CCCC[C@H](NC(=O)[C@H](Cc1ccccc1)NC(=O)[C@H](Cc1c[nH]cn1)NC(=O)CCNC(=O)[C@@H](NC(=O)[C@H](C)NC(=O)[C@H](Cc1c[nH]c2ccccc12)NC(=O)[C@H](CCC(N)=O)NC(=O)[C@H](N)Cc1ccc(O)cc1)C(C)C)C(N)=O [dYB, [D-Tyr6-betaAla11-Phe13-Nle14] bombesin (6-14)] (H-[dY]QWAV[βAla]HF[Nle]-NH2)
Rat BRS-3
  increase in PI hydrolysis: 9 fold
  stimulation of phosphatidylinositol (PI) hydrolysis (inositol monophosphate production): significant increase
Rat BRS-3/IF (RB3-IF); RBB3-IF vs rat BRS-3
  effect of mutation on dYB receptor activity: little effect on the receptor activity
[1]
  affinity and potency reported: nanomolar high affinity and high potency

## CCCC[C@H](NC(=O)[C@H](Cc1ccccc1)NC(=O)[C@H](Cc1cnc[nH]1)NC(=O)CCNC(=O)[C@@H](NC(=O)[C@H](C)NC(=O)[C@H](Cc1c[nH]c2ccccc12)NC(=O)[C@H](CCC(N)=O)NC(=O)[C@H](N)Cc1ccc(O)cc1)C(C)C)C(N)=O [dYB, [D-Tyr6-betaAla11-Phe13-Nle14] bombesin (6-14)] (H-[dY]QWAV[βAla]HF[Nle]-NH2)
Rat BRS-3/E3 (RB3-E3)
  EC50: 0.0028 ± 0.0006 µM
Rat BRS-3/IF (RB3-IF)
  EC50: 1.3 ± 0.23 µM
